Experimental data from publication PMC8443696, “Structural determinants and regulation of spontaneous activity in GABAA receptors” (Nature Communications, 2021).
Values joined by “and” are separate entries in the source; they are usually repeats but may differ in a detail not shown here. Equal entries are not always repeated. Where two headings read alike, the source gives them in different places.

Legend:
α4β3δ receptors [1] = target: T1, α4β3δ receptors (UniProt P18506+P63080+Q9D6F4); format: cell-based, mouse;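 as to GABA current, Supp. Fig. 2b: GABA applied at 0.3 µM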
T1 construct: expressed in transfected cells; host or cells: HEK 293
From the text: (§1) All components were obtained from Life Technologies.
(§2) Currents were acquired with Clampex ver.
(§3) Cells were voltage clamped at −40 mV.
(§4) All data were normalised to the fitted maximum response.

α4β3^DNTKδ receptors = α4β3^DNTKδ receptors (UniProt P18506+P63080+Q9D6F4, E204T/G196D/K198N/R205K)
From the text: as §1, §2, §3, §4

α4β3^K279Tγ2L receptors = α4β3^K279Tγ2L receptors (Mus musculus, UniProt P22723+P63080+Q9D6F4, K304T)
From the text: as §1, §2, §3, §4

α4β3γ2L receptors [2] = target: T2, α4β3γ2L receptors (Mus musculus, UniProt P22723+P63080+Q9D6F4); test: GABA concentration-response curves, whole-cell patch clamp in HEK cells; format: cell-based
T2 construct: expressed in transfected cells; host or cells: HEK 293
From the text: as §1, §2, §3, §4

α4β3δ receptors [3] = target: T1, α4β3δ receptors; format: cell-based, mouse; details: α4β3δ GABA (Fig. 1d); GABA 500 µM, PTX 100 µM; individual cells
From the text: as §1, §2, §3
(§5) For assessment of the efficacy of allosteric modulators on spontaneous activity, compounds were briefly applied (3–5 s) to achieve steady-state currents (IMod). […] The IMod was summed with IPTX (or subtracted for inhibitory modulators) and the Ispont calculated, as described by Eq. (2):2 Ispont(%)=[(IPTX+IMod)/(IPTX+IMax)]×100……………………………………

α1β3γ2L receptors = test system: T3, α1β3γ2L receptors; test: Quantification of spontaneous activity (Ispont) in HEK cells, whole-cell patch clamp; format: cell-based, mouse; details: α1β3γ2L GABA (Fig. 1d); GABA 500 µM, PTX 100 µM; individual cells
T3 construct: expressed in transfected cells; host or cells: HEK 293
From the text: as §1, §2, §3, §5

α4β3 receptors = test system: T4, α4β3 receptors; test: Agonist-evoked whole-cell currents and their modulation by Zn2+ / DS2 in HEK cells;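 as to GABA current, Supp. Fig. 2b: GABA applied at 0.3 µM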; format: cell-based, mouse; parameters: GABA current, Supp. Fig. 2b / GABA + DS2 current, Supp. Fig. 2b / GABA current, Supp. Fig. 2a: unit not given here
T4 construct: expressed in transfected cells; host or cells: HEK 293
From the text: as §1, §2, §3

α4β3δ receptors [4] = target: T1, α4β3δ receptors; test: as above; format: cell-based, mouse; details: GABA alone, individual cells
From the text: as §1, §2, §3

α4β3γ2L receptors [5] = target: T2, α4β3γ2L receptors; test: Agonist-evoked whole-cell currents and their modulation by Zn2+ in HEK cells; format: cell-based; details: GABA alone, individual cells
From the text: as §1, §2, §3

Structure (SMILES): NCCCC(=O)O [GABA, γ-aminobutyric acid]
- GABA current normalised to the fitted maximum response (α4β3δ receptors [1]; [GABA] 0.1, individual cells): 0.5073 and 0.405 and 0.6131
- nH (α4β3δ receptors [1]; individual cells): 0.63 and 0.57 and 0.45 and 0.59 and 0.53 and 0.44 and 0.46 and 0.51
- Hill coefficient (α4β3δ receptors [1]; mean ± SEM, n = 9): 0.5 ± 0.02
- GABA current normalised to the fitted maximum response (α4β3^DNTKδ receptors; α4β3DNTKδ, [GABA] 0.01, individual cells): 0.0007434 and 0.002452 and 0.03107 and 0.001383 and 0.00433 and 0.003861 and 0.002036 and 0.01162 and 0 and 0.01893
- GABA current normalised to the fitted maximum response (α4β3^DNTKδ receptors; α4β3DNTKδ, [GABA] 0.03, individual cells): 0.007062 and 0.01195 and 0.04826 and 0.01383 and 0.009382 and 0.004413 and 0.007126 and 0.02054 and 0.004552 and 0.04327
- GABA current normalised to the fitted maximum response (α4β3^DNTKδ receptors; α4β3DNTKδ, [GABA] 0.1, individual cells): 0.04328 and 0.0495 and 0.09628 and 0.06221 and 0.03922 and 0.04794 and 0.04133 and 0.1252 and 0.03443 and 0.105
- GABA current normalised to the fitted maximum response (α4β3^DNTKδ receptors; α4β3DNTKδ, [GABA] 0.3, individual cells): 0.1541 and 0.16 and 0.2541 and 0.193 and 0.1198 and 0.1414 and 0.1295 and 0.114 and 0.2315
- GABA current normalised to the fitted maximum response (α4β3^DNTKδ receptors; α4β3DNTKδ, [GABA] 1, individual cells): 0.3807 and 0.3987 and 0.5261 and 0.4351 and 0.4134 and 0.5199 and 0.3786 and 0.5032
- GABA current normalised to the fitted maximum response (α4β3^DNTKδ receptors; α4β3DNTKδ, [GABA] 3, individual cells): 0.6642 and 0.6962 and 0.7428 and 0.6422 and 0.5604 and 0.7146 and 0.5958 and 0.7349 and 0.6146 and 0.6907
- GABA current normalised to the fitted maximum response (α4β3^DNTKδ receptors; α4β3DNTKδ, [GABA] 10, individual cells): 0.8725 and 0.8838 and 0.9794 and 0.868 and 0.8251 and 0.879 and 0.7932 and 0.8504 and 0.9182 and 0.913
- GABA current normalised to the fitted maximum response (α4β3^DNTKδ receptors; α4β3DNTKδ, [GABA] 30, individual cells): 0.9699 and 0.9833 and 0.9744 and 0.9032 and 0.8901 and 0.9131 and 0.9034 and 0.7914 and 0.976 and 0.9404
- GABA current normalised to the fitted maximum response (α4β3^DNTKδ receptors; α4β3DNTKδ, [GABA] 100, individual cells): 0.9851 and 0.9946 and 0.9484 and 0.9857 and 0.9989 and 1.0526 and 1.007 and 0.9834 and 1.041 and 0.9979
- GABA current normalised to the fitted maximum response (α4β3^DNTKδ receptors; α4β3DNTKδ, [GABA] 300, individual cells): 0.994 and 0.9896 and 0.9955 and 1.01 and 0.9818 and 1.0044 and 0.9828 and 1.081 and 0.9165 and 0.972
- nH (α4β3^DNTKδ receptors; α4β3DNTKδ, individual cells): 0.91 and 0.96 and 1.1 and 0.94 and 0.75 and 1.12 and 1.06 and 1
- Hill coefficient (α4β3^DNTKδ receptors; α4β3^DNTKδ, mean ± SEM, n = 10): 1.0 ± 0.04
- GABA current normalised to the fitted maximum response (α4β3^K279Tγ2L receptors; α4β3K279Tγ2L, [GABA] 0.001, individual cells): 0.2519 and 0 (3×) and 0.1524 and 0.248
- GABA current normalised to the fitted maximum response (α4β3^K279Tγ2L receptors; α4β3K279Tγ2L, [GABA] 0.003, individual cells): 0.1404 and 0.2434 and 0.2001 and 0.06943 and 0 (2×)
- GABA current normalised to the fitted maximum response (α4β3^K279Tγ2L receptors; α4β3K279Tγ2L, [GABA] 0.01, individual cells): 0.2519 and 0.1217 and 0.166 and 0.124 and 0.0823 and 0.03949
- GABA current normalised to the fitted maximum response (α4β3^K279Tγ2L receptors; α4β3K279Tγ2L, [GABA] 0.03, individual cells): 0.2267 and 0.2011 and 0.2911 and 0.2232 and 0.2097 and 0.1075
- GABA current normalised to the fitted maximum response (α4β3^K279Tγ2L receptors; α4β3K279Tγ2L, [GABA] 0.1, individual cells): 0.3277 and 0.4723 and 0.5922 and 0.2125 and 0.4931 and 0.3266
- GABA current normalised to the fitted maximum response (α4β3^K279Tγ2L receptors; α4β3K279Tγ2L, [GABA] 0.3, individual cells): 0.407 and 0.5504 and 0.3093 and 1.165 and 0.3595
- GABA current normalised to the fitted maximum response (α4β3^K279Tγ2L receptors; α4β3K279Tγ2L, [GABA] 1, individual cells): 0.6167 and 0.8427 and 0.9144 and 0.4437 and 0.6991 and 0.6708
- GABA current normalised to the fitted maximum response (α4β3^K279Tγ2L receptors; α4β3K279Tγ2L, [GABA] 3, individual cells): 0.7288
- nH (α4β3^K279Tγ2L receptors; α4β3K279Tγ2L, individual cells): 0.3987 and 0.6455 and 0.6824 and 0.44 and 1.925 and 0.7169
- Hill coefficient (α4β3^K279Tγ2L receptors; α4β3^K279Tγ2L, mean ± SEM, n = 6): 0.8 ± 0.2
- GABA current normalised to the fitted maximum response (α4β3γ2L receptors [2]; [GABA] 0.01, individual cells): 0.001664 and 0.002276 and 0.001669 and 0.01171 and 0.01147
- GABA current normalised to the fitted maximum response (α4β3γ2L receptors [2]; [GABA] 0.03, individual cells): 0.005144 and 0.004138 and 0.00402 and 0.01346 and 0.01822
- GABA current normalised to the fitted maximum response (α4β3γ2L receptors [2]; [GABA] 0.1, individual cells): 0.01452 and 0.01076 and 0.01069 and 0.03174 and 0.04395
- GABA current normalised to the fitted maximum response (α4β3γ2L receptors [2]; [GABA] 0.3, individual cells): 0.02596 and 0.02427 and 0.06574 and 0.085
- GABA current normalised to the fitted maximum response (α4β3γ2L receptors [2]; [GABA] 1, individual cells): 0.09711 and 0.06608 and 0.07868 and 0.1536 and 0.188
- GABA current normalised to the fitted maximum response (α4β3γ2L receptors [2]; [GABA] 3, individual cells): 0.2349 and 0.1582 and 0.203 and 0.3143 and 0.3127
- GABA current normalised to the fitted maximum response (α4β3γ2L receptors [2]; [GABA] 10, individual cells): 0.4431 and 0.3362 and 0.4922 and 0.6263 and 0.5927
- GABA current normalised to the fitted maximum response (α4β3γ2L receptors [2]; [GABA] 30, individual cells): 0.548 and 0.6886 and 0.7844 and 0.7581
- GABA current normalised to the fitted maximum response (α4β3γ2L receptors [2]; [GABA] 100, individual cells): 0.7417 and 0.7257 and 0.7724 and 0.8852 and 0.8968
- GABA current normalised to the fitted maximum response (α4β3γ2L receptors [2]; [GABA] 300, individual cells): 0.8265 and 0.8069 and 0.8364 and 0.9453 and 0.9104
- GABA current normalised to the fitted maximum response (α4β3γ2L receptors [2]; [GABA] 1000, individual cells): 0.9797 and 0.9449 and 0.994 and 1.0249 and 1.018
- GABA current normalised to the fitted maximum response (α4β3γ2L receptors [2]; [GABA] 3000, individual cells): 0.9857 and 0.9907 and 1.044 and 0.9972 and 0.9754
- nH (α4β3γ2L receptors [2]; individual cells): 0.6867 and 0.7293 and 0.7792 and 0.8713 and 0.7855
- Hill coefficient (α4β3γ2L receptors [2]; mean ± SEM, n = 5): 0.8 ± 0.03
- Ispont, IMax from GABA (α4β3δ receptors [3]): 6.076% and 14.3782% and 18.0154% and 11.8804% and 19.3061% and 35.4037% and 16.1707%
- Ispont, IMax from GABA (α1β3γ2L receptors): 0.9134% and 0.3206% and 5.267% and 3.501% and 0.7067% and 1.417%
- Whole-cell current activated by GABA (α4β3 receptors; 500 µM GABA, n = 7): 237 ± 95 pA
- GABA current, Supp. Fig. 2a (α4β3 receptors; GABA alone, individual cells): 0.31 and 0.16 and 0.22 and 0.23 and 0.064
- GABA current, Supp. Fig. 2b (α4β3 receptors; GABA alone, individual cells): 0.04 and 0.13 and 0.11 and 0.10 and 0.27
- GABA current, Supp. Fig. 2a (α4β3δ receptors [4]): 0.41 and 0.73 and 1.32 and 2.78
- GABA current, Supp. Fig. 2b (α4β3δ receptors [4]): 0.53 and 0.27 and 0.065 and 0.26 and 0.65
- GABA current, Supp. Fig. 2a (α4β3γ2L receptors [5]): 1.69 and 2.20 and 3.55 and 12.70
